Laboratory results reported in patent US12565490B2, “Inhibitors of Receptor Interacting Protein Kinase I for the treatment of disease” (Board of Regents, The University of Texas System, priority 2020, dated 2026).

What follows are compounds tested on human monocytic cell line U937 (assay: Human U937 cellular necroptosis assay). Conditions: U-937; U937 cells stimulated with 25 ng/mL human TNFalpha and 25 μM z-VAD-FMK; 22 hr; viability by Cell Titer-Glo 2.0; read-out: hU937 IC50.
Format: cell-based
Method in brief: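 U937 cells (5000/well) driven to necroptosis by 25 ng/mL human TNFalpha plus 25 μM z-VAD-FMK alongside 1:3-diluted compounds, 22 hr at 37° C, 5% CO2. Viability by CellTiter-Glo luminescence; IC50 from four-parameter logistic fit.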
Compound Cc1cnc(C(=O)N[C@H]2COc3cc(F)cnc3N(C)C2=O)nc1C12CCC(CC1)CC2 [Example 86, (S)-4-(bicyclo[2.2.2]octan-1-yl)-N-(8-fluoro-5-methyl-4-oxo-2,3,4,5-tetrahydro-pyrido[3,2-b][1,4]oxazepin-3-yl)-5-methylpyrimidine-2-carboxamide] has an IC50 of 67.5 nM.
For Cc1cnc(C(=O)N[C@H]2COc3cc(F)cnc3N(C)C2=O)nc1C1CCOCC1 [Example 87, (S)-N-(8-fluoro-5-methyl-4-oxo-2,3,4,5-tetrahydro-pyrido[3,2-b][1,4]oxazepin-3-yl)-5-methyl-4-(tetrahydro-2H-pyran-4-yl)pyrimidine-2-carboxamide], the IC50 was 157 nM.
With Cc1cnc(C(=O)N[C@H]2COc3cc(F)cnc3N(C)C2=O)nc1-c1ccccc1F [Example 88, (S)-N-(8-fluoro-5-methyl-4-oxo-2,3,4,5-tetrahydro-pyrido[3,2-b][1,4]oxazepin-3-yl)-4-(2-fluorophenyl)-5-methylpyrimidine-2-carboxamide] the IC50 was 13.7 nM.
Compound Cc1cc(F)ccc1-c1ccnc(C(=O)N[C@H]2COc3cc(Cl)cnc3N(C)C2=O)n1 [Example 89, (S)-N-(8-chloro-5-methyl-4-oxo-2,3,4,5-tetrahydro-pyrido[3,2-b][1,4]oxazepin-3-yl)-4-(4-fluoro-2-methylphenyl)pyrimidine-2-carboxamide] has an IC50 of 136 nM.
For Cc1cc(F)cc(F)c1-c1ccnc(C(=O)N[C@H]2COc3cc(Cl)cnc3N(C)C2=O)n1 [Example 90, (S)-N-(8-chloro-5-methyl-4-oxo-2,3,4,5-tetrahydro-pyrido[3,2-b][1,4]oxazepin-3-yl)-4-(2,4-difluoro-6-methylphenyl)pyrimidine-2-carboxamide], the IC50 was 83.5 nM.
In the case of CN1C(=O)[C@@H](NC(=O)c2ncc(F)c(-c3ccc(F)cc3)n2)COc2cc(Cl)cnc21 [Example 91, (S)-N-(8-chloro-5-methyl-4-oxo-2,3,4,5-tetrahydro-pyrido[3,2-b][1,4]oxazepin-3-yl)-5-fluoro-4-(4-fluorophenyl)-pyrimidine-2-carboxamide], the IC50 is reported as 33.2 nM.
In the case of Cc1cc(F)ccc1-c1nc(C(=O)N[C@H]2COc3cc(Cl)cnc3N(C)C2=O)ncc1F [Example 92, (S)-N-(8-chloro-5-methyl-4-oxo-2,3,4,5-tetrahydro-pyrido[3,2-b][1,4]oxazepin-3-yl)-5-fluoro-4-(4-fluoro-2-methylphenyl)pyrimidine-2-carboxamide], the IC50 is reported as 15.2 nM.
With CN1C(=O)[C@@H](NC(=O)c2ncc(Cl)c(-c3ccccc3)n2)COc2cc(Cl)cnc21 [Example 93, (S)-5-chloro-N-(8-chloro-5-methyl-4-oxo-2,3,4,5-tetrahydropyrido[3,2-b]-[1,4]oxazepin-3-yl)-4-phenylpyrimidine-2-carboxamide] the IC50 was 6.23 nM.
With CN1C(=O)[C@@H](NC(=O)c2ncc(Cl)c(-c3ccccc3F)n2)COc2cc(Cl)cnc21 [Example 94, (S)-5-chloro-N-(8-chloro-5-methyl-4-oxo-2,3,4,5-tetrahydropyrido[3,2-b]-[1,4]oxazepin-3-yl)-4-(2-fluorophenyl)pyrimidine-2-carboxamide] the IC50 was 13.5 nM.
With CN1C(=O)[C@@H](NC(=O)c2ncc(Cl)c(-c3cccc(F)c3F)n2)COc2cc(Cl)cnc21 [Example 95, (S)-5-chloro-N-(8-chloro-5-methyl-4-oxo-2,3,4,5-tetrahydropyrido[3,2-b]-[1,4]oxazepin-3-yl)-4-(2,3-difluorophenyl)pyrimidine-2-carboxamide] the IC50 was 15.2 nM.
CN1C(=O)[C@@H](NC(=O)c2ncc(Cl)c(-c3ccc(F)cc3F)n2)COc2cc(Cl)cnc21 [Example 96, (S)-5-chloro-N-(8-chloro-5-methyl-4-oxo-2,3,4,5-tetrahydropyrido[3,2-b]-[1,4]oxazepin-3-yl)-4-(2,4-difluorophenyl)pyrimidine-2-carboxamide] was tested, and the IC50 was 8.33 nM.
In the case of CN1C(=O)[C@@H](NC(=O)c2ncc(Cl)c(-c3ccc(F)c(F)c3)n2)COc2cc(Cl)cnc21 [Example 97, (S)-5-chloro-N-(8-chloro-5-methyl-4-oxo-2,3,4,5-tetrahydropyrido[3,2-b]-[1,4]oxazepin-3-yl)-4-(3,4-difluorophenyl)pyrimidine-2-carboxamide], the IC50 is reported as 11 nM.
CN1C(=O)[C@@H](NC(=O)c2ncc(Cl)c(-c3cc(F)ccc3F)n2)COc2cc(Cl)cnc21 [Example 98, (S)-5-chloro-N-(8-chloro-5-methyl-4-oxo-2,3,4,5-tetrahydropyrido[3,2-b]-[1,4]oxazepin-3-yl)-4-(2,5-difluorophenyl)pyrimidine-2-carboxamide] gave an IC50 of 7.25 nM.
Compound CN1C(=O)[C@@H](NC(=O)c2ncc(Cl)c(-c3cc(F)cc(F)c3)n2)COc2cc(Cl)cnc21 [Example 99, (S)-5-chloro-N-(8-chloro-5-methyl-4-oxo-2,3,4,5-tetrahydropyrido [3,2-b]-[1,4]oxazepin-3-yl)-4-(3,5-difluorophenyl)pyrimidine-2-carboxamide] has an IC50 of 13.9 nM.
Cc1cc(-c2nc(C(=O)N[C@H]3COc4cc(Cl)cnc4N(C)C3=O)ncc2Cl)ccc1F [Example 100, (S)-5-chloro-N-(8-chloro-5-methyl-4-oxo-2,3,4,5-tetrahydropyrido[3,2-b]-[1,4]oxazepin-3-yl)-4-(4-fluoro-3-methylphenyl)pyrimidine-2-carboxamide] showed an IC50 of 12.2 nM.
With CN1C(=O)[C@@H](NC(=O)c2ncc(Cl)c(-c3ccccc3Cl)n2)COc2cc(Cl)cnc21 [Example 101, (S)-5-chloro-N-(8-chloro-5-methyl-4-oxo-2,3,4,5-tetrahydropyrido[3,2-b]-[1,4]oxazepin-3-yl)-4-(2-chlorophenyl)pyrimidine-2-carboxamide] the IC50 was 14.7 nM.
In the case of CN1C(=O)[C@@H](NC(=O)c2ncc(Cl)c(-c3cccc(Cl)c3)n2)COc2cc(Cl)cnc21 [Example 102, (S)-5-chloro-N-(8-chloro-5-methyl-4-oxo-2,3,4,5-tetrahydropyrido[3,2-b]-[1,4]oxazepin-3-yl)-4-(3-chlorophenyl)pyrimidine-2-carboxamide], the IC50 is reported as 12.7 nM.
With CN1C(=O)[C@@H](NC(=O)c2ncc(Cl)c(-c3ccc(Cl)cc3)n2)COc2cc(Cl)cnc21 [Example 103, (S)-5-chloro-N-(8-chloro-5-methyl-4-oxo-2,3,4,5-tetrahydropyrido[3,2-b]-[1,4]oxazepin-3-yl)-4-(4-chlorophenyl)pyrimidine-2-carboxamide] the IC50 was 6.69 nM.
Compound CN1C(=O)[C@@H](NC(=O)c2ncc(Cl)c(-c3cccc(C#N)c3)n2)COc2cc(Cl)cnc21 [Example 104, (S)-5-chloro-N-(8-chloro-5-methyl-4-oxo-2,3,4,5-tetrahydropyrido[3,2-b]-[1,4]oxazepin-3-yl)-4-(3-cyanophenyl)pyrimidine-2-carboxamide] has an IC50 of 32.1 nM.
CN1C(=O)[C@@H](NC(=O)c2ncc(Cl)c(-c3ccc(C#N)cc3)n2)COc2cc(Cl)cnc21 [Example 105, (S)-5-chloro-N-(8-chloro-5-methyl-4-oxo-2,3,4,5-tetrahydropyrido[3,2-b]-[1,4]oxazepin-3-yl)-4-(4-cyanophenyl)pyrimidine-2-carboxamide] was tested, and the IC50 was 19.6 nM.
For Cc1cccc(-c2nc(C(=O)N[C@H]3COc4cc(Cl)cnc4N(C)C3=O)ncc2Cl)c1 [Example 106, (S)-5-chloro-N-(8-chloro-5-methyl-4-oxo-2,3,4,5-tetrahydropyrido[3,2-b]-[1,4]oxazepin-3-yl)-4-(m-tolyl)-pyrimidine-2-carboxamide], the IC50 was 14.8 nM.
For Cc1ccn(-c2nc(C(=O)N[C@H]3COc4cc(Cl)cnc4N(C)C3=O)ncc2Cl)n1 [Example 107, (S)-5-chloro-N-(8-chloro-5-methyl-4-oxo-2,3,4,5-tetrahydropyrido [3,2-b]-[1,4]oxazepin-3-yl)-4-(3-methyl-1H-pyrazol-1-yl)-pyrimidine-2-carboxamide], the IC50 was 606 nM.
Work on CN1C(=O)[C@@H](NC(=O)c2ncc(Cl)c(-c3ncccc3F)n2)COc2cc(Cl)cnc21 [Example 108, (S)-5-chloro-N-(8-chloro-5-methyl-4-oxo-2,3,4,5-tetrahydropyrido[3,2-b]-[1,4]oxazepin-3-yl)-4-(3-fluoropyridin-2-yl)pyrimidine-2-carboxamide] yielded an IC50 of 121 nM.
CN1C(=O)[C@@H](NC(=O)c2ncc(Cl)c(-c3cncc(F)c3)n2)COc2cc(Cl)cnc21 [Example 109, (S)-5-chloro-N-(8-chloro-5-methyl-4-oxo-2,3,4,5-tetrahydropyrido[3,2-b]-[1,4]oxazepin-3-yl)-4-(5-fluoropyridin-3-yl)pyrimidine-2-carboxamide] showed an IC50 of 59.2 nM.
With Cc1ncc(-c2nc(C(=O)N[C@H]3COc4cc(Cl)cnc4N(C)C3=O)ncc2Cl)cn1 [Example 110, (S)-5-chloro-N-(8-chloro-5-methyl-4-oxo-2,3,4,5-tetrahydropyrido[3,2-b]-[1,4]oxazepin-3-yl)-2′-methyl-[4,5′-bipyrimidine]-2-carboxamide] the IC50 was 3560 nM.
With CN1C(=O)[C@@H](NC(=O)c2ncc(Cl)c(-c3cncnc3)n2)COc2cc(Cl)cnc21 [Example 111, (S)-5-chloro-N-(8-chloro-5-methyl-4-oxo-2,3,4,5-tetrahydropyrido[3,2-b]-[1,4]oxazepin-3-yl)-[4,5′-bipyrimidine]-2-carboxamide] the IC50 was 485 nM.
CN1C(=O)[C@@H](NC(=O)c2ncc(Cl)c(-c3cnccn3)n2)COc2cc(Cl)cnc21 [Example 112, (S)-5-chloro-N-(8-chloro-5-methyl-4-oxo-2,3,4,5-tetrahydropyrido[3,2-b]-[1,4]oxazepin-3-yl)-4-(pyrazin-2-yl)pyrimidine-2-carboxamide] showed an IC50 of 92.9 nM.
CN1C(=O)[C@@H](NC(=O)c2ncc(Cl)c(-c3cccc4[nH]cnc34)n2)COc2cc(Cl)cnc21 [Example 113, (S)-4-(1H-benzo[d]imidazol-4-yl)-5-chloro-N-(8-chloro-5-methyl-4-oxo-2,3,4,5-tetrahydropyrido[3,2-b]-[1,4]oxazepin-3-yl)pyrimidine-2-carboxamide] showed an IC50 of 7760 nM.
CN1C(=O)[C@@H](NC(=O)c2ncc(Cl)c(-c3cccc4[nH]ncc34)n2)COc2cc(Cl)cnc21 [Example 114, (S)-5-chloro-N-(8-chloro-5-methyl-4-oxo-2,3,4,5-tetrahydropyrido[3,2-b]-[1,4]oxazepin-3-yl)-4-(1H-indazol-4-yl)pyrimidine-2-carboxamide] gave an IC50 of 63.1 nM.
